Earlier results, collected in patent US20030198597A1, “Novel macrocyclic activatible magnetic resonance imaging contrast agents” (priority 2002, published 2003).

Details: thermodynamic stability of the Gd3+ chelate complex; background statement

O=C([O-])CN(CCN(CC(=O)[O-])CC(=O)[O-])CCN(CC(=O)[O-])CC(=O)[O-].[Gd+3] [Gd(DTPA)^2−]
stability constant (K) / formation constant, logK: 22.4

O=C([O-])CN1CCN(CC(=O)[O-])CCN(CC(=O)[O-])CCN(CC(=O)[O-])CC1.[Gd+3] [Gd-DOTA]
stability constant (K) / formation constant, logK: 28.5
